How the values were obtained:
[1] = tested on: Daucus carota; experiment: Post-emergence herbicidal activity against Daucus carota (carrot) assessed as growth inhibition at 225 ai g/ha after 20 days by green house test; assay type: functional
[2] = tested on: Amaranthus retroflexus; experiment: Post-emergence herbicidal activity against Amaranthus retroflexus assessed as growth inhibition at 225 ai g/ha after 20 days by green house test; assay type: functional
[3] = tested on: Cardamine hirsuta; experiment: Post-emergence herbicidal activity against Cardamine hirsuta assessed as growth inhibition at 150 ai g/ha after 20 days by green house test; assay type: functional
[4] = tested on: Oryza sativa; experiment: Inhibition of PDHc in Oryza sativa (rice) shoot mitochondria assessed as decrease in rate of NADH formation using sodium pyruvate as substrate at 100 microg/g preincubated for 25 min before substrate addition measured after 1 min by spectrophotometric assay
[5] = Toxicity against Zea mays Gao you 1 (maize) assessed as growth inhibition at 450 ai g/ha post-emergent application measured after 20 days by green house crop selectivity test; assay type: organism-based; conditions: Gao you 1, zea mays, in vivo, read-out: GI
[6] = tested on: Amaranthus retroflexus; experiment: Post-emergence herbicidal activity against Amaranthus retroflexus assessed as growth inhibition at 300 ai g/ha after 20 days by green house test; assay type: functional
[7] = tested on: Xanthium strumarium; experiment: Post-emergence herbicidal activity against Xanthium strumarium (cocklebur) assessed as growth inhibition at 450 ai g/ha after 20 days by green house test; assay type: functional
[8] = tested on: Daucus carota; experiment: Post-emergence herbicidal activity against Daucus carota (carrot) assessed as growth inhibition at 300 ai g/ha after 20 days by green house test; assay type: functional
[9] = tested on: Oryza sativa; experiment: Inhibition of PDHc in Oryza sativa (rice) shoot mitochondria assessed as decrease in rate of NADH formation using sodium pyruvate as substrate at 1000 microg/g preincubated for 25 min before substrate addition measured after 1 min by spectrophotometric assay
[10] = tested on: Brassica rapa subsp. oleifera; experiment: Post-emergence herbicidal activity against Brassica rapa subsp. oleifera Si Yue Man assessed as growth inhibition at 600 ai g/ha after 20 days by green house test; assay type: functional
[11] = tested on: Digitaria sanguinalis; experiment: Post-emergence herbicidal activity against Digitaria sanguinalis (hairy crabgrass) assessed as growth inhibition at 37.5 ai g/ha after 20 days by green house test; assay type: functional
[12] = tested on: Xanthium strumarium; experiment: Post-emergence herbicidal activity against Xanthium strumarium (cocklebur) assessed as growth inhibition at 225 ai g/ha after 20 days by green house test; assay type: functional
[13] = tested on: Cardamine hirsuta; experiment: Post-emergence herbicidal activity against Cardamine hirsuta assessed as growth inhibition at 75 ai g/ha after 20 days by green house test; assay type: functional
[14] = tested on: Cardamine hirsuta; experiment: Post-emergence herbicidal activity against Cardamine hirsuta assessed as growth inhibition at 225 ai g/ha after 20 days by green house test; assay type: functional
[15] = tested on: Cardamine hirsuta; experiment: Post-emergence herbicidal activity against Cardamine hirsuta assessed as growth inhibition at 37.5 ai g/ha after 20 days by green house test; assay type: functional
[16] = tested on: Amaranthus retroflexus; experiment: Post-emergence herbicidal activity against Amaranthus retroflexus assessed as growth inhibition at 18.75 ai g/ha after 20 days by green house test; assay type: functional
[17] = tested on: Echinochloa crus-galli; experiment: Post-emergence herbicidal activity against Echinochloa crus-galli (barnyard grass) assessed as growth inhibition at 75 ai g/ha after 20 days by green house test; assay type: functional
[18] = tested on: Echinochloa crus-galli; experiment: Post-emergence herbicidal activity against Echinochloa crus-galli (barnyard grass) assessed as growth inhibition at 225 ai g/ha after 20 days by green house test; assay type: functional
[19] = tested on: Echinochloa crus-galli; experiment: Post-emergence herbicidal activity against Echinochloa crus-galli (barnyard grass) assessed as growth inhibition at 150 ai g/ha after 20 days by green house test; assay type: functional
[20] = tested on: Daucus carota; experiment: Post-emergence herbicidal activity against Daucus carota (carrot) assessed as growth inhibition at 600 ai g/ha after 20 days by green house test; assay type: functional
[21] = tested on: Portulaca oleracea; experiment: Post-emergence herbicidal activity against Portulaca oleracea assessed as growth inhibition at 75 ai g/ha after 20 days by green house test; assay type: functional
[22] = tested on: Portulaca oleracea; experiment: Post-emergence herbicidal activity against Portulaca oleracea assessed as growth inhibition at 225 ai g/ha after 20 days by green house test; assay type: functional
[23] = Toxicity against Zea mays Gao you 1 (maize) assessed as growth inhibition at 150 ai g/ha post-emergent application measured after 20 days by green house crop selectivity test; assay type: organism-based; conditions: Gao you 1, zea mays, in vivo, read-out: GI
[24] = tested on: Brassica rapa subsp. oleifera; experiment: Post-emergence herbicidal activity against Brassica rapa subsp. oleifera Si Yue Man assessed as growth inhibition at 450 ai g/ha after 20 days by green house test; assay type: functional
[25] = tested on: Medicago sativa; experiment: Post-emergence herbicidal activity against Medicago sativa (alfalfa) assessed as growth inhibition at 225 ai g/ha after 20 days by green house test; assay type: functional
[26] = tested on: Xanthium strumarium; experiment: Post-emergence herbicidal activity against Xanthium strumarium (cocklebur) assessed as growth inhibition at 37.5 ai g/ha after 20 days by green house test; assay type: functional
[27] = tested on: Oryza sativa; experiment: Inhibition of PDHc in Oryza sativa (rice) shoot mitochondria assessed as decrease in rate of NADH formation using sodium pyruvate as substrate at 0.1 microg/g preincubated for 25 min before substrate addition measured after 1 min by spectrophotometric assay
[28] = tested on: Xanthium strumarium; experiment: Post-emergence herbicidal activity against Xanthium strumarium (cocklebur) assessed as growth inhibition at 300 ai g/ha after 20 days by green house test; assay type: functional

COP(=O)(OC)C(C)OC(=O)COc1ccc(Cl)cc1Cl (stereo not drawn) [CLACYFOS]
growth inhibition (GI) [1]: 97% | growth inhibition (GI) [2]: 100% | growth inhibition (GI) [3]: 92.5% | inhibition [4]: 21.3% | inhibition at 480 h [5]: 0% | growth inhibition (GI) [6]: 100% | growth inhibition (GI) [7]: 100% | growth inhibition (GI) [8]: 100% | inhibition [9]: 55.1% | growth inhibition (GI) [10]: 100% | growth inhibition (GI) [11]: 0% | growth inhibition (GI) [12]: 95% | growth inhibition (GI) [13]: 88% | growth inhibition (GI) [14]: 95% | growth inhibition (GI) [15]: 84% | growth inhibition (GI) [16]: 65% | growth inhibition (GI) [17]: 0% | growth inhibition (GI) [18]: 10% | growth inhibition (GI) [19]: 0% | growth inhibition (GI) [20]: 100% | growth inhibition (GI) [21]: 75% | growth inhibition (GI) [22]: 90% | inhibition at 480 h [23]: 0% | growth inhibition (GI) [24]: 100% | growth inhibition (GI) [25]: 95% | growth inhibition (GI) [26]: 60% | inhibition [27]: 3.4% | growth inhibition (GI) [28]: 100%

Source: ChEMBL document CHEMBL3045592, “Studies of O,O-dimethyl α-(2,4-dichlorophenoxyacetoxy)ethylphosphonate (HW02) as a new herbicide. 1. Synthesis and herbicidal activity of HW02 and analogues as novel inhibitors of pyruvate dehydrogenase complex” (J Agric Food Chem, 2011)
